Laboratory results as given in patent US6603023B2 (priority 1996, dated 2003).
Where two headings read alike, the source gives them in different places.

Tests used:
CCRF-CEM/VBL100 = test: cells; format: cell-based, human; conditions: read-out: IC50
Procedure: (§1) The drug-resistant cell lines were continuously cultured in the presence of the selecting agent, AD, DX, VBL or VM to maintain the drug resistant phenotypes. […] All cells were cultured in RPMI 1640-10% FBS at 37° C. 5% CO2 (see below).
(§2) The cells were cultured at an initial density of 5×10^4 cells/mL. They were maintained in a 5% CO2-humidified atmosphere at 37° C. in RPMI-1640 medium (GIBCO-BRL, Gaithersburg, Md.) containing penicillin (100 U/mL), streptomycin ([…]) (GIBCO-BRL) and 10% heat inactivate fetal bovine serum. Culture for cell suspension (such as for CCRF-CEM, P388 and sublines), were performed by the XTT-microculture tetrazonium method (Scudiero, D. A. et al., Cancer Res. 1988, 48, 4827-4833) in duplicate in 96-well microtiter plates.
(§3) 2′,3′-Bis(methoxy-4-nitro-5-sufophenyl)-5-[(phenylamino)carbonyl]2H-tetrazolium hyudroxide (XTT) was prepared at 1 mg/mL in prewarmed (37° C.) medium without serum. Phenazine methosulfate (PMS) and fresh XTT were mixed together to obtain 0.025 mM PMS-XTT solution (25 μL of the stock 5 mM PMS was added per 5 mL of 1 mg/mL XTT). Following a 72 h incubation, 50 μL of the assay aliquots were added to each well of the cell culture. After incubation at 37° C. for 4 h, absorbance at 450 nm and 630 nm was measured with a microplate reader (EL340, Bio-Tek Instruments, Inc., Winooski, Vt.).

[1] = system: CCRF-CEM human T-cell acute lymphoblastic leukemia cell line; test: XTT cytotoxicity (cell growth inhibition), CCRF-CEM; conditions: for Rel. Value (potency relative to Epo B): CCRF-CEM leukemic cells
Procedure: The DC-3F hamster lung fibroblast cell line and its actinomycin D-selected sublines (DC-3F/ADII and DC-3F/ADX) were obtained from the Memorial Sloan-Kettering Cancer Center (MSKCC).
as §1, §2, §3

[2] = system: human mammary carcinoma MX-1 xenograft
Procedure: DMSO was used as a vehicle for epothilones. Each mouse received ≦40 μL DMSO in all experiments.
Athymic nude mice (nu/nu) were used for MX-1 and MCF-7/Adr human mammary carcinoma xenografts. Mice were obtained from Taconic Laboratory Animals and Service (Germantown, N.Y.: outbred, Swiss background).

[3] = Table 5, CCRF-CEM/VLB, single determinations
[4] = high doses: dEpoB 25, EpoB 0.6, Taxol 10, Vinblastine 0.4 mg/kg i.p. Q2D from day 7
[5] = low doses: dEpoB 15, EpoB 0.3, Taxol 5, Vinblastine 0.2 mg/kg i.p. Q2D day 7-15

Structure (SMILES)	IC50 (CCRF-CEM/VBL100; [3]) [nM]	IC50 (CCRF-CEM/VBL100; Table 7, CEM/VBL) [nM]	IC50 (CCRF-CEM/VBL100) [nM]	IC50 [1] [nM]	Rel. Value (potency relative to Epo B) [1]	IC50 ([1]; Table 5, single determinations) [nM]	IC50 ([1]; Table 7, CEM) [nM]	other results
CCC/C1=C\C[C@@H](/C(C)=C/c2csc(C)n2)OC(=O)C[C@H](O)C(C)(C)C(=O)[C@H](C)[C@@H](O)[C@@H](C)CCC1 [#17]	254	254	254	90	1/257	90	90	
C/C(=C\c1coc(C)n1)[C@@H]1C/C=C\CCC[C@H](C)[C@H](O)[C@@H](C)C(=O)C(C)(C)[C@@H](O)CC(=O)O1 [#20]	49	49	49	30		30	30	
C/C1=C/C[C@@H](/C(C)=C/c2ccccc2)OC(=O)C[C@H](O)C(C)(C)C(=O)[C@H](C)[C@@H](O)[C@@H](C)CCC1 [#22]	146	146	146			98	98	
CCC[C@@]12CCC[C@H](C)[C@H](O)[C@@H](C)C(=O)C(C)(C)[C@@H](O)CC(=O)O[C@H](/C(C)=C/c3csc(C)n3)C[C@@H]1O2 [#24]	53	53	53	7.8		7.8	7.8	
CC/C1=C/C[C@@H](/C(C)=C/c2csc(C)n2)OC(=O)C[C@H](O)C(C)(C)C(=O)[C@H](C)[C@@H](O)[C@@H](C)CCC1 [#25]	77	77	77	21	1/60		21.2	
CCC1=CCC(C(C)=Cc2csc(C)n2)OC(=O)CC(O)C(C)(C)C(=O)C(C)C(O)C(C)CCC1 (stereo not shown) [#26]	197	197	197	5	1/157	55	54.5	
CC[C@@]12CCC[C@H](C)[C@H](O)[C@@H](C)C(=O)C(C)(C)[C@@H](O)CC(=O)O[C@H](/C(C)=C/c3csc(C)n3)C[C@@H]1O2 [#27]	7.2	7.2	7.2	1		1	1	fold more potent than Taxol ([1]; CCRF-CEM cells): > 2 fold
C/C1=C/C[C@@H](/C(C)=C/c2csc(C)n2)OC(=O)C[C@H](O)C(C)(C)C(=O)[C@H](C)[C@@H](O)[C@@H](C)CCC1 [Desoxyepothione B]								cured on day 35 (no detectable tumor) ([2]; Desoxyepothilone B 25 mg/kg i.p. Q2D day 7-15): (1/6 cured on day 35); Average Body Weight (change), Day 11 [2, 4]: +0.4 g; Average Body Weight (change), Day 13 [2, 4]: +0.7 g; Average Body Weight (change), Day 15 [2, 4]: +1.0 g; Average Body Weight Change, Day 17 [2, 4]: +0.7 g; Average Tumor Volume (T/C), Day 11 [2, 4]: 0.38 T/C; Average Tumor Volume (T/C), Day 13 [2, 4]: 0.11 T/C; Average Tumor Volume (T/C), Day 15 [2, 4]: 0.05 T/C; Average Tumor Volume (T/C), Day 17 [2, 4]: 0.04 T/C; Note: died (mice died/total) [2, 4]: 0/6 died; Average Body Weight, Day 7 ([2]; initial weight, first treatment day, high doses: dEpoB 25, EpoB 0.6, Taxol 10, Vinblastine 0.4 mg/kg i.p. Q2D from day 7): 27.0 g; Average Body Weight (change), Day 11 [2, 5]: +0.8 g; Average Body Weight (change), Day 13 [2, 5]: +1.1 g; Average Body Weight (change), Day 15 [2, 5]: +1.6 g; Average Body Weight Change, Day 17 [2, 5]: +1.5 g; Average Tumor Volume (T/C), Day 11 [2, 5]: 0.65 T/C; Average Tumor Volume (T/C), Day 13 [2, 5]: 0.46 T/C; Average Tumor Volume (T/C), Day 15 [2, 5]: 0.49 T/C; Average Tumor Volume (T/C), Day 17 [2, 5]: 0.41 T/C; Note: died (mice died/total) [2, 5]: 0/6 died
